One test deals with GM1-enriched lipid rafts. It is filed as cell-based, mouse. As to conditions: JAWS II cells, 18 hr with 100 nM glycolipid.
In a further test the target is T1, mCD1d (Mus musculus, UniProt P11609).
T1 sequence (P11609 22-305 limits assumed): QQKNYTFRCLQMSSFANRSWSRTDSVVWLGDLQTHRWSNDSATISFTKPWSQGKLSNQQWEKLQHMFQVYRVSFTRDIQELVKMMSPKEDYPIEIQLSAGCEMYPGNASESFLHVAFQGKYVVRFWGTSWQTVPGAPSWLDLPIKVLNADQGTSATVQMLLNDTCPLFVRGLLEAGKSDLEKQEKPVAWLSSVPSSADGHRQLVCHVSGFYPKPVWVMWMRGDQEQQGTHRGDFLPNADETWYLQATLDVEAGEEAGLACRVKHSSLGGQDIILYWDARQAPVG
T1 sequence (P01887 21-119 partner): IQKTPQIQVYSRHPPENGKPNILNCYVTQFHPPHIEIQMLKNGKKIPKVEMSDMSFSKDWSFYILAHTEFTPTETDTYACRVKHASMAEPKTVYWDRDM
The test is described as follows: Loading of mCD1d tetramers with or without 0.05% Triton X-100, staining of hybridoma DN3A4.1-2. The test is classed as binding. As to conditions: 0.05% Triton X-100, 24 hr at 37°C. From the text: The efficient loading of CD1 molecules with lipids such as αGalCer-C26:0 is known to involve cofactors that enhance the transfer of lipids from micelles or membranes into the antigen-binding groove of the CD1 protein. The best known of these cofactors are resident intracellular lipid binding and transfer proteins including those belonging to the saposin family, GM2 activator proteins, and Niemann-Pick type C1 and C2 proteins ([Zhou et al., 2004; Sagiv et al., 2006; Yuan et al., 2007; Schrantz et al., 2007]). Most of these are known to have detergent-like activities that facilitate solubilization of lipids and their exchange between hydrophobic binding sites. […]
Figure 5 Lack of Detergent-like Cofactor Dependence of Th2 Cell-Type Cytokine-Biasing αGalCer Analogs (A) Glycolipids were incubated for 24 hr at 37°C with murine CD1d proteins in the absence (top row) or presence (bottom row) of 0.05% Triton X-100. […] After washing, DN32.D3 iNKT hybridoma cells were added and supernatant concentrations of IL-2 were determined after an additional 14 hr of incubation. […]
Recombinant CD1d proteins were produced and assembled into tetramers for staining as previously described ([Forestier et al., 2007]). […] All samples were analyzed with the FACSCalibur flow cytometer (BD Biosciences).

SMILES strings stand for the structures.

Regarding `CCCCCCCCCCCCCCC(O)C(O)C(COC1OC(CO)C(O)C(O)C1O)NC(=O)CCCCCCCCC` (stereo not shown) [αGalCer-C10:0], the “colocalization of L363 staining with CTxB staining” value with GM1-enriched lipid rafts is on record as “extremely limited colocalization with CTxB staining”. Take `CCCCCCCCCCCCCCCCCCCCCCCC(=O)NC(COC1OC(CO)C(O)C(O)C1O)C(O)C(O)CCCCCCCCCCCCCC` (stereo not shown) [αGalCer-C24:0]: the “effect of Triton X-100 on formation of mCD1d tetramers that bind iNKT cell TCRs” value on mCD1d is recorded as “clear enhancing effect”. With `CCCCCCCCCCCCCCCCCCCCCCCCCC(=O)NC(COC1OC(CO)C(O)C(O)C1O)C(O)C(O)CCCCCCCCCCCCCC` (stereo not shown) [αGalCer-C26:0, reference compound], the “colocalization of L363 staining with CTxB staining” value with GM1-enriched lipid rafts is “strong colocalization with CTxB staining”. In addition, the “effect of Triton X-100 on formation of mCD1d tetramers that bind iNKT cell TCRs” value at mCD1d was “clear enhancing effect”.
